The conditions of series [1]: single oral dose, co-administration of a high fat meal; cited from earlier work.
Series [2] in a line: Early RBV plasma exposure (AUC0-4h) after a 600 mg first dose of RBV. In kind it is in vivo, human (patients with chronic hepatitis C). The following applies: for AUC(0-t): human, plasma, oral, 600 mg. The procedure: Patients were divided into two groups according to their HIV status. […] All patients gave their informed consent before they entered the study.
The plasma AUC was determined for each patient before the antiviral treatment or at the first day.
Results of AUC and normalized AUC were analyzed according to the two groups defined by the HIV status.
All quantitative variables were expressed as median and range. Comparisons of data were made using the non-parametric Mann–Whitney test. Statistical analysis was performed using the Statistica® software package (StatSoft Inc). […] A p value below 0.05 was considered as statistically significant.

The conditions of series [3]: cited from earlier work.

Molecules are shown by their SMILES. Read-outs that look alike come from different tables or passages of the source. Some results are limits rather than exact numbers.

Here are results for 1 compound from publication PMC3994577 (BMC Infectious Diseases, 2014).

As to `NC(=O)c1ncn([C@@H]2O[C@H](CO)[C@@H](O)[C@H]2O)n1` [RBV, ribavirin], the “AUCtf (from time zero to the time of the final quantifiable sample)” value in series [1] is on record as “increased”. The Cmax entry in series [1] is given as “increased”. The “Patients with AUC0-4h <1755” value in series [2] (HCV monoinfected patients (n = 63), threshold 1755 μg.h/L) is given as 32%. Further, the “patients with AUC0-4h above the threshold of 1755 μg.h/L” value in series [2] (HIV-HCV coinfected patients) amounted to 39%. In addition, the AUC(0-t) was found to be 2030 ng·h/mL in series [2] (HCV monoinfected patients (n = 63), single 600 mg RBV dose, median (range), read-out: AUC0-4h); 2430 ng·h/mL in series [2] (HCV monoinfected, HCV treatment naive patients, read-out: median AUC0-4h); 1870 ng·h/mL in series [2] (HCV monoinfected, non-responders, read-out: median AUC0-4h); 2020 ng·h/mL in series [2] (HCV monoinfected, relapsers, read-out: median AUC0-4h); 1470 ng·h/mL in series [2] (HIV-HCV coinfected patients (n = 23), single 600 mg RBV dose, median (range), read-out: AUC0-4h); 1270 ng·h/mL in series [2] (HIV-HCV coinfected patients with CD4 < 500/mm^3, median (range), read-out: AUC0-4h). Moreover, the AUC(0-t) in series [2] (HIV-HCV coinfected patients with CD4 ≥ 500/mm^3, median (range), read-out: AUC0-4h) is 1840 ng·h/mL; in series [2] (RBV-AUC 0-4h (median), HCV monoinfected patients, abstract) it was 2030 ng·h/mL; in series [2] (RBV-AUC 0-4h (median), HIV-HCV coinfected patients, abstract), 1470 ng·h/mL; in series [2] (all three HIV-HCV coinfected patients with detectable HIV RNA, read-out: AUC0-4h), < 1760 ng·h/mL; in series [2] (male, male HCV monoinfected patients, single 600 mg dose, median (range), read-out: Men AUC0-4h) it was 1880 ng·h/mL; in series [2] (male, male HIV-HCV coinfected patients, single 600 mg dose, median (range), read-out: Men AUC0-4h) it was 1410 ng·h/mL. Also, the entries for the “Men with AUC0-4h <1755” value in series [2] (male HCV monoinfected patients) and in series [2] (male HIV-HCV coinfected patients) were 43% and 65%, respectively. The “patients with AUC0-4h below the 1755 μg.h/L threshold” value in series [3] (historical study, monoinfected HCV genotype 1 patients) is 58%. In series [3] (single dose of 600 mg, HCV monoinfected patients), the “threshold for RBV plasma AUC from 0 to 4 h post-dose discriminating SVR from non-response” value is 1755 µg·h/L.
